Laboratory results published in US8309536B2, “Implant improving local bone formation” (priority 2005, dated 2012).
“And” between values parts separate entries of the source, which are not always exact repeats. Equal entries are not always repeated.

How the values were obtained:
bone resorption = settings: cited from earlier work; for potency at inhibiting bone resorption relative to second generation bisphosphonates (in words): third generation bisphosphonates which contain a tertiary nitrogen
distraction osteogenesis = settings: cited from earlier work
regenerate bone / callus = settings: Smith et al 2003; net bone accumulation due to increased retention of callus; cited from earlier work
[1] = system: murine (MC3T3) osteoblastic cells; settings: Peter et al 2004; cited from earlier work
[2] = system: canine ulnar intramedullary implant model; assay: Canine ulnar intramedullary implant model, HA coated porous tantalum implants dosed with ZA (local delivery), 12 weeks, quantitative histology; type: in vivo, dog
Description: In Vivo Studies. The previously described canine ulnar intramedullary implant model was utilized (study approved by institutional review board) (Bobyn J D, Tanzer M, Harvey EJ, Krygier JJ, Little DG. J Bone Joint Surg (Br), In press, 2005). The surgical procedure involved anesthetizing the dog with a general anesthesia and under sterile conditions exposing the proximal ulna. A two-centimeter incision was made over the olecranon process and the triceps tendon was split by sharp dissection down to bone. Under fluoroscopic guidance, a 5.0 mm drill was oriented along the long axis of the ulna and in line with the intramedullary canal. A 5.5 cm long hole was drilled under fluoroscopy to ensure the proper orientation of the drill hole and to prevent cortical penetration. The porous implant was then tapped down the intramedullary canal of the ulna with a punch and mallet. The implant was slightly countersunk to avoid postoperative irritation of the overlying triceps tendon. The wound was irrigated and closed in a standard fashion. The procedure was repeated on the contralateral side. Positioning of the implants inevitably varied somewhat in terms of depth of insertion within the canal and spatial orientation within the canal. […] Each dog received either two control HA coated implants without ZA or two HA coated implants dosed with 0.05 mg ZA. Five control dogs and four with ZA-dosed implants were studied at 12 weeks. This protocol was utilized instead of one with a control and a ZA-dosed implant in each animal because it avoided the possibility of systemic absorption of ZA from one side and influence of a control implant on the other side.
Histological examination. After sacrifice, the ulnae were harvested, stripped of soft tissue, radiographed and processed for undecalcified hard-section histology (FIG. 6). This involved dehydration in ascending solutions of ethanol, defatting in ether and acetone, and embedding in methylmethacrylate. Each implant was cut transversely into 6 or 7 sections at 7-8 mm intervals. The sections were radiographed and polished, sputter coated with gold-palladium, and imaged with backscattered scanning electron microscopy. For each section, computerized image analysis based on grey level discrimination was used to identify bone and implant and to generate quantitative information on the extent of bone ingrowth, defined as the percentage of the available porosity that was filled with new bone. Also tabulated in each section was the number and size of the individual islands of bone within the implant pores. In sections cut through the ulnar diaphysis, where delineation of the endosteal cortex was clearly evident, the total area of peri-implant bone contained within the intramedullary canal was also tabulated. In these calculations the implant area (and bone within) was not included. For each section, the peri-implant bone was expressed as a percentage of the total peri-implant area within the intramedullary canal (not including the implant).
Statistical analysis. The quantitative histological data were statistically analyzed using multiple two-level hierarchical models. At the first level of the model, the set of results from the limbs of each dog was assumed to follow a normal distribution with dog-specific means and a global variance parameter. At the second level of the model, the means from each dog in each group (control, ZA-dosed) from the first level followed a second normal distribution, with the mean representing the overall mean for the treatment or control groups and the variance representing the variability within the group. A similar statistical model was also run where the results for each dog were allowed to vary with the distance (section level) along the ulna. […] The mean values and differences between means for control and ZA-dosed implants were estimated with 95% confidence intervals (CI).

[3] = system: canine ulnar intramedullary implant model; assay: as above; type: in vivo, dog; settings: total ZA doses of 0.2 mg and 0.4 mg, relative to 0.05 mg
[4] = ZA elution from porous tantalum implants in saline, assayed by UV spectrophotometry; type: physicochemical; settings: for percent of the ZA released: HA-coated implant dosed with 0.05 mg ZA
Description: Assay of ZA Elution. Assays of ZA in solution were achieved using UV spectrophotometry. Bisphosphonates on their own lack a detectable chromophore, making them difficult to assay by simple conventional analytical methods. However, the metal chelating properties of bisphosphonates are well known. When bisphosphonates complex with certain metal ions, a chromophore with suitable. UV activity for spectrophotometric analysis is created (Ostovic D, Stelmach C, Hulshizer B. Pharmaceutical Research. 10:470-472, 1993). The method for assaying ZA in aqueous-based solutions is based on the formation of a ZA complex with iron (III) ions (Kuljanin J, Jankovic I, Nedeljkovic J, Prstojevic D, Marinkovic V. Journal of Pharmaceutical and Biomedical Analysis. 28:1215-1220, 2002). Of the three components in the prescription drug Zometa™ (ZA, mannitol, and sodium citrate), only ZA forms a complex with iron (III) ions. A standard solution of iron (III) chloride in perchloric acid is added to known concentrations of Zometa™ and the absorbance is measured at 290 nm to create a calibration curve. A highly acidic medium is needed to prevent the hydrolysis of the iron (III) ions. Aliquots of the soak solution from the Zometa™-coated implants can be analyzed by adding the standard iron (III) chloride solution to the soak solution and measuring the absorbance at 290 nm. By measuring the absorbance, the concentration of the sample can be calculated and thus the mass of the drug released from the implant for a given time period can be determined.
Four porous tantalum implants with and without HA coating were deposited with 0.05 mg of ZA as described. For each implant group, elution characteristics were ascertained by immersing each implant in a test tube containing 5 ml of 0.9% saline at […]. At mutiple test intervals (1 min, 3 min, 5 min, 10 min, 15 min, 30 min, 1 hr, 6 hrs, 12 hrs, 1 day, 3 days, 7 days, 14 days, 21 days, 42 days, 84 days, and 98 days), the implant was removed from the test tube, the saline was thoroughly mixed, and aliquots were removed for ZA assays using UV spectrophotometry. After each time interval for each implant, the implant was placed in a test tube with fresh replacement of 5 ml of saline. This elution model avoided build up of boundary layers and more closely resembled a dynamic system. The 84-day assay time corresponded to the 12 week length of the in vivo implant studies. Assays ceased once the total amount of ZA was released.

[5] = system: human (MG-63) osteoblastic cells; settings: Peter et al 2004; cited from earlier work
[6] = system: canine ulnar intramedullary implant model; assay: Canine ulnar intramedullary implant model, single intravenous dose of ZA, porous tantalum rods implanted for 6 weeks; type: in vivo
Procedure: The hypothesis that bisphosphonates have a positive effect on net bone growth, particularly into porous implants, was first confirmed by conducting a canine ulnar intramedullary implant model in which porous tantalum rods were implanted for 6 weeks. (Bobyn J D, Tanzer M, Harvey EJ, Krygier JJ, Little DG. J Bone Joint Surg (Br), 2005) Immediately after surgery, seven test animals with 14 ulnar implants were administered a single intravenous dose of 0.1 mg/kg ZA (Novartis Pharma A G, Basel, Switzerland). Because of the systemic exposure of test animals to ZA it was necessary to utilize external control data from a prior experiment (Tanzer M, Kantor S, Bobyn J D. J Arthrop 19:195-199, 2002) for comparisons of bone ingrowth. The mean extent of bone ingrowth was 6.6% for the control implants and 12.2% for the ZA-treated implants, a relative difference of 85% that was statistically significant.

[7] = system: knee prostheses migration; settings: early postoperative oral regimen, radiostereometry; cited from earlier work
[8] = system: soft tissue formation at implant site; settings: single application via a sponge to an implant site, rat; cited from earlier work
alveolar bone resorption = settings: local application following periodontal surgery in rats; cited from earlier work
[9] = individual ZA dogs 1-4, 0.05 mg ZA, 12 weeks

**Q.** With `CCCCCN(C)CCC(O)(P(=O)(O)O)P(=O)(O)O` [ibandronate] as the compound, how does the “potency at inhibiting bone resorption relative to second generation bisphosphonates (in words)” value (bone resorption) read?
**A.** even more potent

**Q.** For `NCCC(O)(P(=O)(O)O)P(=O)(O)O` [pamidronate], which “effect on disuse osteopenia and regenerate bone” value (distraction osteogenesis; single postoperative intravenous dose of pamidronate (3 mg/kg)) is on record?
**A.** decreased the disuse osteopenia normally associated with lengthening and increased the amount and density of the regenerate bone

**Q.** With `O=P(O)(O)C(O)(Cn1ccnc1)P(=O)(O)O` [ZA, zoledronic acid] as the compound, how does the “potency relative to alendronate” value (bone resorption; Green 2001, Li and Davis 2003) read?
**A.** 250 times

**Q.** And the “potency relative to pamidronate” value (bone resorption; Green 2001, Li and Davis 2003)?
**A.** 100 times

**Q.** What about the “potency at inhibiting bone resorption relative to second generation bisphosphonates (in words)” value (bone resorption) of the same compound?
**A.** even more potent

**Q.** What about the bone formation rate (regenerate bone / callus) of the same compound?
**A.** reduced

**Q.** And the “concentration below which ZA can be considered safe for cellular activity” value [1]?
**A.** below 10 μM

**Q.** What about the “more net bone growth into ZA-dosed implants compared with controls, relative” value ([2]; 0.05 mg ZA, 12 weeks) of the same compound?
**A.** 58%

**Q.** What about the “peri-implant bone around ZA-dosed implants relative to controls” value ([2]; 0.05 mg ZA, 12 weeks) of the same compound?
**A.** 2.3 times

**Q.** And the “peri-implant bone on contact radiographs, ZA-dosed vs control implants (in words)” value ([2]; 0.05 mg ZA, 12 weeks)?
**A.** almost always more dense and/or abundant

**Q.** What about the “relative difference in the size of the bone islands, ZA-dosed vs control” value ([2]; 0.05 mg ZA, 12 weeks) of the same compound?
**A.** 71%

**Q.** What about the “Bone Island Size, overall Mean (95% CI)” value ([2]; 0.05 mg ZA, 12 weeks, 54 sections, 8 implants) of the same compound?
**A.** 0.023 (0.016 to 0.031) mm^2

**Q.** What about the “bone islands larger in the ZA-dosed implants than in controls, difference” value ([2]; 0.05 mg ZA, 12 weeks, 95% CI 0.001 to 0.017) of the same compound?
**A.** 0.009 mm^2

**Q.** What about the “difference of the means of peri-implant bone filling, ZA-dosed vs control” value ([2]; 0.05 mg ZA, 12 weeks, 95% CI 3.3 to 33.7) of the same compound?
**A.** 18.4%

**Q.** And the “difference in mean extent of bone ingrowth, ZA-dosed vs control” value ([2]; 0.05 mg ZA, 12 weeks, 95% CI 3.5 to 11.1)?
**A.** 7.3%

**Q.** And the “histologic evidence of cellular toxicity” value ([2]; 0.05 mg dose)?
**A.** without any histologic evidence of cellular toxicity

**Q.** What about the “Peri-implant bone relative to intramedullary canal size, overall Mean (95% CI)” value ([2]; HA coated implants dosed with 0.05 mg ZA, 12 weeks, 24 diaphyseal sections, 8 implants) of the same compound?
**A.** 32.2 (21.7 to 43.0) %

**Q.** And the “Mean extent of bone ingrowth, overall Mean (95% CI)” value ([2]; HA coated implants dosed with 0.05 mg ZA, 12 weeks, 54 sections, 8 implants)?
**A.** 19.8 (16.9 to 22.6) %

**Q.** What about the “# Bone Islands, by dog” value [2, 9] of the same compound?
**A.** 109 and 155 and 206 and 131

**Q.** What about the “Bone Island Size, by dog” value [2, 9] of the same compound?
**A.** 0.033 mm^2 and 0.016 mm^2 (2×) and 0.028 mm^2

**Q.** And the “Mean extent of bone ingrowth, by dog” value ([2]; individual ZA dogs 1-4, HA coated implants dosed with 0.05 mg ZA, 12 weeks)?
**A.** 16.0% and 20.3% (2×) and 22.6%

**Q.** What about the “Peri-implant bone relative to intramedullary canal size, by dog” value ([2]; individual ZA dogs 1-4, HA coated implants dosed with 0.05 mg ZA, 12 weeks, diaphyseal sections) of the same compound?
**A.** 19.8% and 38.5% and 30.4% and 40.0%

**Q.** And the “bone formation on increasing the dosage of ZA” value ([2]; total ZA doses of 0.2 mg and 0.4 mg, relative to 0.05 mg)?
**A.** more bone formation around and within the implant

**Q.** What about the “complications or systemic illness related to the ZA administration” value ([2]; two HA coated implants dosed with 0.05 mg ZA per dog, 12 weeks) of the same compound?
**A.** No dogs had any complications or systemic illness

**Q.** And the “kind of the additional bone formed at higher doses” value [3]?
**A.** woven bone

**Q.** And the “effect on osteopenia and regenerate bone” value (distraction osteogenesis; one or two doses of ZA)?
**A.** abolished osteopenia and increased regenerate volume, mineralization and strength

**Q.** And the “percent of the ZA released” value ([4]; 0.9% saline, after soaking for 6 weeks)?
**A.** ~95%

**Q.** What about the “percent of the ZA released” value ([4]; 0.9% saline, within 1 hour) of the same compound?
**A.** about 65%

**Q.** And the “release of zoledronic acid in saline (in words, FIG. 7)” value ([4]; implants without HA coating compared to those with HA coating, 0.05 mg)?
**A.** rapid and complete release

**Q.** What about the “time within which all of the ZA was released” value ([4]; non-HA coated porous tantalum implant dosed with 0.05 mg ZA, 0.9% saline) of the same compound?
**A.** ≤ 1 h

**Q.** What about the “concentration below which ZA can be considered safe for cellular activity” value [5] of the same compound?
**A.** below 10 μM

**Q.** What about the “average bone island size larger in the ZA-treated group” value ([6]; 0.1 mg/kg ZA intravenous) of the same compound?
**A.** 69%

**Q.** And the “relative difference in bone ingrowth, ZA-treated vs external control implants” value ([6]; 0.1 mg/kg ZA intravenous, statistically significant)?
**A.** 85%

**Q.** And the “mean extent of bone ingrowth” value ([6]; single intravenous dose of 0.1 mg/kg ZA, 14 ulnar implants, own earlier published study)?
**A.** 12.2%

**Q.** Which “effect on migration of knee prostheses” value [7] does the source give for `O=P(O)(O)C(Cl)(Cl)P(=O)(O)O` [clodronate] here?
**A.** reduced migration of knee prostheses

**Q.** Which results are given for `NCCCC(O)(P(=O)(O)O)P(=O)(O)O` [alendronate]?
**A.** effect on soft tissue forming from resorptive remodeling due to repetitive implant motion [8]: reduces the amount of soft tissue; effect on alveolar bone resorption (alveolar bone resorption): reduce alveolar bone resorption

**Q.** For `O=P(O)(O)C(O)(Cc1cccnc1)P(=O)(O)O` [risendronate], which “potency at inhibiting bone resorption relative to second generation bisphosphonates (in words)” value (bone resorption) is on record?
**A.** even more potent
